# In ChEMBL document CHEMBL3992487 (Medchemcomm, 2016):
# What was measured:
# [1] = Dissociation constant, pKa of the compound; assay type: physicochemical
# [2] = Intrinsic clearance in human liver microsomes; assay type: ADME, microsome; settings: read-out: CLH
# [3] = Intrinsic clearance in human hepatocytes assessed per million cells; assay type: ADME, cell-based, Hepatocyte; settings: read-out: CLH
# [4] = Clearance in rat blood; assay type: ADME
# [5] = Oral bioavailability in rat; assay type: ADME, organism-based; settings: in vivo
SMILES,pKa [1],microsomal CLint [2] [µL/min/mg],hepatocyte CLint [3] [µL/min/1e6 cells],clearance [4] [mL/min/kg],bioavailability [5] [%]
NC(CF)(CF)c1nc(-c2ccc(OC(F)(F)F)cc2)c[nH]1,5.9,–,–,–,–
CC(C)(N)c1nc(-c2ccc(OC(F)(F)F)cc2)c[nH]1,7.9,8,< 6,–,–
NC1(Cc2nc(-c3ccc(OC(F)(F)F)cc3)c[nH]2)COC1,6.4,–,–,5,49 to 52

# Second part, the molecule after the results:
pKa [1],microsomal CLint [2] [µL/min/mg],hepatocyte CLint [3] [µL/min/1e6 cells],clearance [4] [mL/min/kg],bioavailability [5] [%],SMILES
7.1,–,–,–,–,COC[C@@](C)(N)c1nc(-c2ccc(OC(F)(F)F)cc2)c[nH]1
6.4,–,–,–,–,C[C@](N)(CF)c1nc(-c2ccc(OC(F)(F)F)cc2)c[nH]1
